According to PubChem BioAssay AID330 (DTP/NCI, 2004):
“And” between values parts separate entries of the source, which are not always exact repeats. Equal entries are not always repeated. Inconclusive results and toxic doses are left out. The calls were made as follows: active = survival T/C of 150% or more; inactive = T/C below 125% in these data.

Tested on: P388 leukemia ip, CD2F1 mice, survival T/C
Test: NCI In Vivo Anticancer Drug Screen. Data for tumor model P388 Leukemia (intraperitoneal) in CD2F1 (CDF1) mice
Details: endpoint: median survival time, higher = longer survival
Summary of the method: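 Mice carrying the transplanted tumor received test compound or vehicle. Survival was recorded in each group, and the value is the treated-group measurement divided by that of the vehicle-treated control group.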

[1] = dose: 50.0 mg/kg/injection, schedule: Q01DX009 (ip), vehicle: saline with Tween-80
[2] = dose: 100.0 mg/kg/injection, schedule: Q01DX009 (ip), vehicle: saline with Tween-80
[3] = dose: 200.0 mg/kg/injection, schedule: Q01DX009 (ip), vehicle: saline with Tween-80
[4] = dose: 50.0 mg/kg/injection, schedule: Q01DX009 (ip), vehicle: Klucel (hydroxypropylcellulose) (HPC)
[5] = dose: 100.0 mg/kg/injection, schedule: Q01DX009 (ip), vehicle: Klucel (hydroxypropylcellulose) (HPC)
[6] = dose: 200.0 mg/kg/injection, schedule: Q01DX009 (ip), vehicle: Klucel (hydroxypropylcellulose) (HPC)
[7] = dose: 60.0 mg/kg/injection, schedule: Q01DX005 (ip), vehicle: saline with Tween-80
[8] = dose: 120.0 mg/kg/injection, schedule: Q01DX005 (ip), vehicle: saline with Tween-80
[9] = dose: 50.0 mg/kg/injection, schedule: Q01DX005 (ip), vehicle: saline
[10] = dose: 100.0 mg/kg/injection, schedule: Q01DX005 (ip), vehicle: saline
[11] = dose: 240.0 mg/kg/injection, schedule: Q01DX005 (ip), vehicle: saline with Tween-80
[12] = dose: 12.5 mg/kg/injection, schedule: Q04DX003 (ip), vehicle: Klucel (hydroxypropylcellulose) (HPC)
[13] = dose: 25.0 mg/kg/injection, schedule: Q04DX003 (ip), vehicle: Klucel (hydroxypropylcellulose) (HPC)
[14] = dose: 25.0 mg/kg/injection, schedule: Q01DX009 (ip), vehicle: Klucel (hydroxypropylcellulose) (HPC)
[15] = dose: 30.0 mg/kg/injection, schedule: Q01DX005 (ip), vehicle: saline with Tween-80
[16] = dose: 50.0 mg/kg/injection, schedule: Q01DX005 (ip), vehicle: saline with Tween-80
[17] = dose: 100.0 mg/kg/injection, schedule: Q01DX005 (ip), vehicle: saline with Tween-80
[18] = dose: 200.0 mg/kg/injection, schedule: Q01DX005 (ip), vehicle: saline with Tween-80
[19] = dose: 25.0 mg/kg/injection, schedule: Q01DX005 (ip), vehicle: saline with Tween-80

Measured: T/C

Nc1cc(S(=O)(=O)O)cc2cc(S(=O)(=O)O)cc(O)c12
inactive: dose: 60.0 mg/kg/injection, schedule: Q01DX005 (ip), vehicle: Klucel (hydroxypropylcellulose) (HPC) 96 % of control | dose: 120.0 mg/kg/injection, schedule: Q01DX005 (ip), vehicle: Klucel (hydroxypropylcellulose) (HPC) 98 % of control | dose: 240.0 mg/kg/injection, schedule: Q01DX005 (ip), vehicle: Klucel (hydroxypropylcellulose) (HPC) 95 % of control

O=[N+]([O-])c1ccc(Nc2ccccc2[N+](=O)[O-])cc1
inactive: dose: 7.5 mg/kg/injection, schedule: Q01DX009 (ip), vehicle: saline with Tween-80 94 % of control | dose: 15.0 mg/kg/injection, schedule: Q01DX009 (ip), vehicle: saline with Tween-80 94 % of control | dose: 30.0 mg/kg/injection, schedule: Q01DX009 (ip), vehicle: saline with Tween-80 91 % of control

CC(=O)Nc1ccc(OCCOCCOc2ccc(NC(C)=O)cc2)cc1
inactive: [1] 92 % of control | [2] 94 % of control | [3] 91 % of control

Nc1ccc2ccccc2c1[N+](=O)[O-]
inactive: [4] 105 % of control | [5] 102 % of control | [6] 113 % of control

Cc1cc(COCCN(C)C)on1
inactive: [7] 97 % of control | [8] 104 % of control

CC1(C)OI(O)c2ccccc21
inactive: dose: 100.0 mg/kg/injection, schedule: Q04DX002 (ip), vehicle: Klucel (hydroxypropylcellulose) (HPC) 100 % of control | dose: 200.0 mg/kg/injection, schedule: Q04DX002 (ip), vehicle: Klucel (hydroxypropylcellulose) (HPC) 100 % of control

Cc1c2ccncc2c(CNCCO)c2c3ccccc3n(C)c12
inactive: dose: 5.0 mg/kg/injection, schedule: Q01DX005 (ip), vehicle: saline 110 % of control | dose: 10.0 mg/kg/injection, schedule: Q01DX005 (ip), vehicle: saline 108 % of control | dose: 20.0 mg/kg/injection, schedule: Q01DX005 (ip), vehicle: saline 110 % of control

Nc1nc(=O)cnn1C1OC(CO)C(O)C1O (stereo unspecified)
inactive: dose: 100.0 mg/kg/injection, schedule: Q01DX001 (ip), vehicle: saline with Tween-80 98 % of control | dose: 200.0 mg/kg/injection, schedule: Q01DX001 (ip), vehicle: saline with Tween-80 97 % of control | dose: 400.0 mg/kg/injection, schedule: Q01DX001 (ip), vehicle: saline with Tween-80 103 % of control

O=C(NC(CO)C(=O)O)c1ccccc1 (stereo unspecified)
inactive: [9] 100 % of control | [10] 100 % of control | dose: 200.0 mg/kg/injection, schedule: Q01DX005 (ip), vehicle: saline 100 % of control

CC1(C)OC(C2SCCS2)C2OC(=O)C(O[Si](C)(C)C(C)(C)C)C2O1 (stereo unspecified)
inactive: [7] 99 % of control | [8] 93 % of control | [11] 93 % of control

CC(=O)CC(c1ccccc1)C(C#N)c1ccccc1 (stereo unspecified)
inactive: [12] 118 % of control | [13] 106 % of control | dose: 50.0 mg/kg/injection, schedule: Q04DX003 (ip), vehicle: Klucel (hydroxypropylcellulose) (HPC) 106 % of control

CC(C)(C)C(=O)Nc1ccc(C(C)(C)C)cc1C(O)(C(F)(F)F)C(F)(F)F
inactive: [5] 92 % of control | [6] 88 % of control

CSc1cc(C)[o+]c(C)c1
inactive: [14] 101 % of control | [4] 113 % of control and 92 % of control | [5] 106 % of control and 107 % of control | [6] 122 % of control

Cc1ccc(C2C(C#N)C(=O)NC(=O)C2C#N)cc1 (stereo unspecified)
inactive: [4] 100 % of control | [5] 108 % of control | [6] 99 % of control

CN(C)CCn1ncc(Sc2cc([N+](=O)[O-])ccc2N)c(Cl)c1=O
inactive: [7] 103 % of control | [8] 96 % of control | [11] 97 % of control

CC(C)=NNC(N)=S
inactive: [12] 93 % of control | [13] 100 % of control

O=C(NC(=NC(=NC1CCCCC1)c1ccccc1)c1ccccc1)c1ccccc1
inactive: [1] 99 % of control | [2] 92 % of control | [3] 89 % of control

CC(C)(C)OC(=O)NCC(=O)ON1C(=O)CCC1=O
inactive: [1] 118 % of control | [2] 102 % of control

COc1cc(C2CC(C)(O)Oc3cc4c(cc32)OCO4)cc(OC)c1OC (stereo unspecified)
inactive: [15] 104 % of control | [7] 105 % of control and 108 % of control

O=C1CN(CCCCl)CC(=O)N2Cc3ccccc3CN12
inactive: [16] 106 % of control | [17] 101 % of control | [18] 99 % of control

CC[N+](C)(CC)C1C(S(=O)(=O)c2ccccc2)CC1(C)C (stereo unspecified)
inactive: dose: 25.0 mg/kg/injection, schedule: Q01DX005 (ip), vehicle: saline 108 % of control | [9] 98 % of control | [10] 99 % of control

C=CCCCCCCCCCSC(=N)N
inactive: dose: 6.25 mg/kg/injection, schedule: Q01DX009 (ip), vehicle: Klucel (hydroxypropylcellulose) (HPC) 98 % of control | dose: 12.5 mg/kg/injection, schedule: Q01DX009 (ip), vehicle: Klucel (hydroxypropylcellulose) (HPC) 93 % of control | [14] 99 % of control

FC(F)(F)COP(OCC(F)(F)F)c1ccccc1
inactive: [16] 106 % of control | [17] 111 % of control | [18] 111 % of control

CC(=O)N/C(=C/c1ccccc1)C(=O)N/C(=C/c1ccccc1)C(=O)O
inactive: dose: 50.0 mg/kg/injection, schedule: Q01DX005 (ip), vehicle: Klucel (hydroxypropylcellulose) (HPC) 101 % of control | dose: 100.0 mg/kg/injection, schedule: Q01DX005 (ip), vehicle: Klucel (hydroxypropylcellulose) (HPC) 99 % of control | dose: 200.0 mg/kg/injection, schedule: Q01DX005 (ip), vehicle: Klucel (hydroxypropylcellulose) (HPC) 91 % of control

CC1=CCCCN1C(=O)CC1C=CCS1(=O)=O (stereo unspecified)
inactive: [19] 100 % of control | [16] 103 % of control | [17] 103 % of control

O=C1N2CCCC2(S)C(=O)N2CCCC12[S-].[Zn] (stereo unspecified)
inactive: dose: 12.5 mg/kg/injection, schedule: Q01DX009 (ip), vehicle: saline 95 % of control and 97 % of control | dose: 25.0 mg/kg/injection, schedule: Q01DX009 (ip), vehicle: saline 100 % of control and 90 % of control | dose: 50.0 mg/kg/injection, schedule: Q01DX009 (ip), vehicle: saline 108 % of control and 119 % of control | dose: 100.0 mg/kg/injection, schedule: Q01DX009 (ip), vehicle: saline 124 % of control and 95 % of control

CC1C2=C(CN(C)CC2)c2ccccc21 (stereo unspecified)
inactive: dose: 12.5 mg/kg/injection, schedule: Q01DX005 (ip), vehicle: saline with Tween-80 100 % of control | [19] 96 % of control | [16] 105 % of control

COc1cc2c(cc1OC)C13CCN4CC5=CCOC6CC(=O)N2C1C6C5CC43 (stereo unspecified)
inactive: dose: 7.5 mg/kg/injection, schedule: Q01DX005 (ip), vehicle: saline with Tween-80 102 % of control | dose: 12.5 mg/kg/injection, schedule: Q01DX009 (ip), vehicle: saline with Tween-80 100 % of control | dose: 15.0 mg/kg/injection, schedule: Q01DX005 (ip), vehicle: saline with Tween-80 97 % of control | dose: 25.0 mg/kg/injection, schedule: Q01DX009 (ip), vehicle: saline with Tween-80 100 % of control | dose: 25.0 mg/kg/injection, schedule: Q04DX003 (ip), vehicle: saline sonified 100 % of control | [15] 100 % of control | [1] 100 % of control | dose: 50.0 mg/kg/injection, schedule: Q04DX003 (ip), vehicle: saline sonified 95 % of control | [7] 93 % of control
